This note sets out measurements from patent publication US12303512B2, “Therapeutically active compounds and their methods of use” (Servier Pharmaceuticals LLC, priority 2021, dated 2025).

This series is described as follows: Absorption, distribution, metabolism and excretion of oral [14C]vorasidenib in humans; metabolite profiling in plasma, urine, feces. The settings on record: human, in vivo. Here is the method: Metabolite profiling and identification of vorasidenib (AG-881) was performed in plasma, urine, and fecal samples collected from five healthy subjects after a single 50-mg (100 μCi) oral dose of [14C]AG-881 and concomitant intravenous microdose of [^13C3 ^15N3]AG-881.
Plasma samples collected at selected time points from 0 through 336 hour postdose were pooled across subjects to generate 0- to 72 and 96-336-hour area under the concentration-time curve (AUC)-representative samples. Urine and feces samples were pooled by subject to generate individual urine and fecal pools. Plasma, urine, and feces samples were extracted, as appropriate, the extracts were profiled using high performance liquid chromatography (HPLC), and metabolites were identified by liquid chromatography-mass spectrometry (LC-MS and/or LC-MS/MS) analysis and by comparison of retention time with reference standards, when available.
Due to low radioactivity in samples, plasma metabolite profiling was performed by using accelerator mass spectrometry (AMS). In plasma, AG-881 was accounted for 66.24 and 29.47% of the total radioactivity in the pooled AUC0-72 h and […] plasma, respectively. The most abundant radioactive peak (P7; M458) represented 0.10 and 43.92% of total radioactivity for pooled AUC0-72 and AUC96-336 h plasma, respectively. All other radioactive peaks accounted for less than 6% of the total plasma radioactivity and were not identified.

As for `C[C@@H](Nc1nc(N[C@H](C)C(F)(F)F)nc(-c2cccc(Cl)n2)n1)C(F)(F)F` [AG-881, 6-(6-chloropyridin-2-yl)-N2, N4-bis((R)-1,1,1-trifluoropropan-2-yl)-1,3,5-triazine-2,4-diamine, reference compound], the “radioactivity recovered in feces, % of the dose” value is 55.5 % of the dose and the “unchanged parent detected in urine” value was “no AG-881 was detected”.
Consider `CS(=O)(=O)c1cccc(-c2nc(N)nc(N)n2)n1` [Compound M266], for which the “radioactivity recovered in urine, % of the dose” value was 2.54 % of the dose.
`C[C@@H](Nc1nc(N[C@H](C)C(F)(F)F)nc(-c2cccc(S(=O)(=O)O)n2)n1)C(F)(F)F` [Compound M460-1]: the “radioactivity recovered in feces, % of the dose” value is on record as 2-5 % of the dose.
Consider `C[C@@H](Nc1nc(N[C@H](C)C(F)(F)F)nc(-c2cccc(SCC(N)C(=O)O)n2)n1)C(F)(F)F` (some centres unmarked) [Compound M499], for which the “radioactivity recovered in feces, % of the dose” value was 2-5 % of the dose.
